Data from ChEMBL document CHEMBL1201862, “PubChem BioAssay data set” (2004).
Activity calls are given as the source filed them.

Legend:
Genome polyprotein = Genome polyprotein (Hepatitis C virus, UniProt Q2Q167); experiment: HCV core protein dimerization inhibitors, dose response, biochemical, TR-FRET (AID 2159); design: species or system Hepacivirus hominis;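 further: blocks dimerization of HCV core protein measured by TR-FRET between tagged core106 pairs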
INS1 = experiment: beta cell apoptosis inhibitors, cytokine rescue, dose response, luminescence, retest (AID 449756); format: functional, cell-based; conditions: Rattus norvegicus;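 further: cell death triggered by IL-1 beta plus TNF-alpha plus IFN-gamma mixture; protective hits raise ATP signal compared with cytokine alone wells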
Caspase-6 = molecular target: T1, Caspase-6 (Homo sapiens, UniProt P55212); experiment: human caspase-6 inhibitors, dose response, biochemical, VEID-R110 fluorescence, cherry-pick (AID 720632)
T1 sequence (P55212 whole entry): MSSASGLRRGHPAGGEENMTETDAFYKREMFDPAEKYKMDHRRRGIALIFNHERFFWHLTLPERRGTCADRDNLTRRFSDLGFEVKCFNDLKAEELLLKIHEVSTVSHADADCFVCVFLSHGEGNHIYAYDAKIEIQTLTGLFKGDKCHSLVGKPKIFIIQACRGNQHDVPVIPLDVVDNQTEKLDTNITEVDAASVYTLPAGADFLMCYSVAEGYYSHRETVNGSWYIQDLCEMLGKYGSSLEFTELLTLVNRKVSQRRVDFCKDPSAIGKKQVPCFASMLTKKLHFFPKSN

H4 = experiment: Luminescence Cell-Based Dose Response HTS to Identify Activators of 5'UTR Stem-Loop Driven Prion Protein mRNA Translation in H4 Neuroglioblastoma Cells. [Related pubchem assays: 1829 (Project Summary), 1814 (Primary HTS)]; format: functional; conditions: Homo sapiens
[1] = Luminescence Cell-Based Dose Confirmation HTS to Identify Activators of 5'UTR Stem-Loop Driven Alpha-Synuclein mRNA Translation in H4 Neuroglioblastoma Cells. [Related pubchem assays: 1829 (Project Summary), 1814 (Primary HTS)]; format: functional
[2] = Luminescent dose response cell-based high throughput screening assay for inhibitors of the Janus kinase 2 mutant JAK2V617F. [Related pubchem assays: 1446 (Primary screen.), 1521 (Confirmation assay.), 1486 (Counter screen.)]; format: functional
[3] = Luminescence Cell-Based Dose Response HTS to Identify Activators of Luciferase Translation or Activity in H4 […] Cells. [Related pubchem assays: 1829 (Project Summary), 1814 (Primary HTS)]; format: functional
[4] = molecular target: Photoreceptor-specific nuclear receptor (Homo sapiens, UniProt Q9Y5X4); experiment: NR2E3 inverse agonists, dose response, biochemical, TR-FRET (AID 463256); format: functional
Chain of Photoreceptor-specific nuclear receptor (Q9Y5X4 whole entry): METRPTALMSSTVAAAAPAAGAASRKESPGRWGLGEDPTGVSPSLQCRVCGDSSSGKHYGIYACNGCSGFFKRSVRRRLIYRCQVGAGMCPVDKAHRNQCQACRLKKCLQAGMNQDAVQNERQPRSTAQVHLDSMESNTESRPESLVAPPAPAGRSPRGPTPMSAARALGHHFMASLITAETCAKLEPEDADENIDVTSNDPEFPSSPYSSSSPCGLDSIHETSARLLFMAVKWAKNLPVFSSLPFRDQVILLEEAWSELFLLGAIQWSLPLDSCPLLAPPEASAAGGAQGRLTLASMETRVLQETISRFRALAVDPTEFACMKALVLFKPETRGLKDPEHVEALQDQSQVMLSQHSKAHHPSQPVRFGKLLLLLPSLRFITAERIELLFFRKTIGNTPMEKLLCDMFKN

[5] = molecular target: Peroxisome proliferator-activated receptor gamma/Nuclear receptor corepressor 2 (Homo sapiens, UniProt P37231+Q9Y618); experiment: Counterscreen for NR2E3 inverse agonists: TR-FRET-based biochemical high throughput dose response assay to identify inverse agonists of the interaction between peroxisome proliferator-activated receptor gamma (PPARg) and nuclear receptor co-repressor 2 (NCOR2).; format: functional
Chain of Peroxisome proliferator-activated receptor gamma/Nuclear receptor corepressor 2 (P37231 whole entry): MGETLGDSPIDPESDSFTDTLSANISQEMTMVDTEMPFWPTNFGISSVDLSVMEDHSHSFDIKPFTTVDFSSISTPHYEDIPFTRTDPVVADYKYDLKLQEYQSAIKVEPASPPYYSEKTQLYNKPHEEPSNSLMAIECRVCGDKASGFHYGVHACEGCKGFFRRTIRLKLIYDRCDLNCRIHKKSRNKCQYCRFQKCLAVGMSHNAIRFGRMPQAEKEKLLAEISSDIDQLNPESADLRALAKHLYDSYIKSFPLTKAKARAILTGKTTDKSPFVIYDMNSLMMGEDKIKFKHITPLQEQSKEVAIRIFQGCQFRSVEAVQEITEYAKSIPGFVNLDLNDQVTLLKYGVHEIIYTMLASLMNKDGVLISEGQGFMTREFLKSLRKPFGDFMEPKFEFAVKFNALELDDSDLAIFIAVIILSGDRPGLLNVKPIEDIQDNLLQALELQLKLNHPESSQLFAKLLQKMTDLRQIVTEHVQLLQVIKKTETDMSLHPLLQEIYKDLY
Chain of Peroxisome proliferator-activated receptor gamma/Nuclear receptor corepressor 2 (Q9Y618 whole entry): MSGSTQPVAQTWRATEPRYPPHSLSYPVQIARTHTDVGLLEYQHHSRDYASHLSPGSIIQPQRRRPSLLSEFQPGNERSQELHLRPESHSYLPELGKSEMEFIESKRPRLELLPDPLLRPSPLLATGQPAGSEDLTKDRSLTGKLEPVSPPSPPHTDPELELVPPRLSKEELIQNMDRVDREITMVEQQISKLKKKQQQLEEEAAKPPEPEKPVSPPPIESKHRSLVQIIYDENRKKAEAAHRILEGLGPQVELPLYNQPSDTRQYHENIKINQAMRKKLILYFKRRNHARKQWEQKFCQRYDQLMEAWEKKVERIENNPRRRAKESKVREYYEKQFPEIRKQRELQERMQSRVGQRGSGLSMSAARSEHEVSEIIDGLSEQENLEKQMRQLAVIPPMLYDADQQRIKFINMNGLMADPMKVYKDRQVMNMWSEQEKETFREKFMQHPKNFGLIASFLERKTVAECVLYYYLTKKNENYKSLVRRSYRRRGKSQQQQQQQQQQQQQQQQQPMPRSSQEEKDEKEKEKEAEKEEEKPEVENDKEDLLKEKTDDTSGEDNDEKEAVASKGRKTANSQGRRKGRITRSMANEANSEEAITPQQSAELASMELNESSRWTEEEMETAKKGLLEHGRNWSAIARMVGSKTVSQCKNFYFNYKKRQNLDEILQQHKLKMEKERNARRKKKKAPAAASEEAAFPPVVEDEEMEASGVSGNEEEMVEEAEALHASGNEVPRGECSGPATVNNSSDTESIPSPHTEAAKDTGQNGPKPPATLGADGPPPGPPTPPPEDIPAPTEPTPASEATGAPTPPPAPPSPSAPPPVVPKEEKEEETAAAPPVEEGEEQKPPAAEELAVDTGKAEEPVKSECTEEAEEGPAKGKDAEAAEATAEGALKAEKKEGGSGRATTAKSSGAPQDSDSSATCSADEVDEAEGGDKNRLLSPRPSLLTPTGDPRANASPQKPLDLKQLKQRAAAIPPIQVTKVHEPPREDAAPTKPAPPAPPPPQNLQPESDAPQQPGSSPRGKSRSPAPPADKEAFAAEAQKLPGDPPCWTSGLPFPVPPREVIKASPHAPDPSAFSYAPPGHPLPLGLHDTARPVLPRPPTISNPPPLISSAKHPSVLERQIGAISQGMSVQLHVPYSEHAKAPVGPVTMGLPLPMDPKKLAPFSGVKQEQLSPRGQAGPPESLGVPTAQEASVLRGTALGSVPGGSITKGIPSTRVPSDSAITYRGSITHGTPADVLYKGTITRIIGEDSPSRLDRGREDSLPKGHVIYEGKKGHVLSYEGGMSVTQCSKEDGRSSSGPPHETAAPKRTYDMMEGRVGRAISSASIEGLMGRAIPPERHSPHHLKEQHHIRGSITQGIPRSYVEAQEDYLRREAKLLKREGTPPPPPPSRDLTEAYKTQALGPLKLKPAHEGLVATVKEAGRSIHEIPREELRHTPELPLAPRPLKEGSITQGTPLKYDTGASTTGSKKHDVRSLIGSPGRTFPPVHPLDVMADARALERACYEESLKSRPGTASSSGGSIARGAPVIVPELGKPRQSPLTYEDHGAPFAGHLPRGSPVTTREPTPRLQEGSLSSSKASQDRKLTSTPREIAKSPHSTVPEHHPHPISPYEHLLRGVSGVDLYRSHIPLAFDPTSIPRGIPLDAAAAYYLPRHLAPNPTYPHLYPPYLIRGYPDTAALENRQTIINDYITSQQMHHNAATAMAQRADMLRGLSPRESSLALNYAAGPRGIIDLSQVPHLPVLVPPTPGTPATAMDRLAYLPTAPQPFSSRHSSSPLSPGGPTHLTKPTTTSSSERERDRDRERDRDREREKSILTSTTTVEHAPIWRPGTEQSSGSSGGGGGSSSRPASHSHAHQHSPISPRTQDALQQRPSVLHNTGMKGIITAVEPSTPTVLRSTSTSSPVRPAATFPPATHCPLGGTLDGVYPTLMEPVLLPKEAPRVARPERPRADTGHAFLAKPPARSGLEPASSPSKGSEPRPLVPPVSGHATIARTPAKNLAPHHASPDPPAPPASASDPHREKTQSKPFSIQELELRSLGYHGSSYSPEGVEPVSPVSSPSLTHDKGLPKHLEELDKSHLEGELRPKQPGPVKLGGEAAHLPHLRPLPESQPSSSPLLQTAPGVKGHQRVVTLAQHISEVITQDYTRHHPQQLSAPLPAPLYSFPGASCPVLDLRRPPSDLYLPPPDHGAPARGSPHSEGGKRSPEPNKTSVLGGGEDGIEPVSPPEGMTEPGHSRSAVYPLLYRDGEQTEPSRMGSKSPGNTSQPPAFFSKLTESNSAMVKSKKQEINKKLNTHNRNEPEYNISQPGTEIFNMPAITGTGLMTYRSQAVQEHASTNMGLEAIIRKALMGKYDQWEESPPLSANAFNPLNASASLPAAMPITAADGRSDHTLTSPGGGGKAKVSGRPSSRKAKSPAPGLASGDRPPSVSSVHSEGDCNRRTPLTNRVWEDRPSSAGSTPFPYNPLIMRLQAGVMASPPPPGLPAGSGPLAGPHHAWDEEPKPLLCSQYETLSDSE

[6] = Glucagon-like peptide 1 release potency, NCI-H716 cell line, dose-response, half-maximal inhibitory concentration (AID 1117344); format: functional, cell-based
[7] = half-maximal inhibitory concentration for glucagon-like peptide-1 release, STC-1 cell line, dose-response (AID 1117345); format: functional, cell-based
[8] = Dose-response inhibition of insulin secretion in a rat insulinoma line at 5 mM glucose (AID 1117331); format: functional, cell-based; conditions: INS-1E
[9] = molecular target: Sphingosine 1-phosphate receptor 2 (Homo sapiens, UniProt O95136); experiment: Dose Response Cell Based Assay for Agonists of the S1P2 Receptor. [Related pubchem assays: 729, 736, 843 ]; format: functional
Chain of Sphingosine 1-phosphate receptor 2 (O95136 whole entry): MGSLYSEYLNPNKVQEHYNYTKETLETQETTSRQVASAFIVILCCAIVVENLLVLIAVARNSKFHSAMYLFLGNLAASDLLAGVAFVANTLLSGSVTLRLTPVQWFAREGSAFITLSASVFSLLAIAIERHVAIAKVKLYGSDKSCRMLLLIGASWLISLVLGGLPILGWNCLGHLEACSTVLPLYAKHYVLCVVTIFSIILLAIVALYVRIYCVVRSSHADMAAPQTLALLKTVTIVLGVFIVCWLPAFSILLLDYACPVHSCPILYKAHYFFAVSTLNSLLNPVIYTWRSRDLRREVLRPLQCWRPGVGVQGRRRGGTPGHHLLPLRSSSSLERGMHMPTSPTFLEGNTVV

[10] = molecular target: Protein-tyrosine kinase 2-beta (Homo sapiens, UniProt Q14289);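 further: potency of inhibitors of PYK2 kinase phosphorylation of poly-GT substrate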
Chain of Protein-tyrosine kinase 2-beta (Q14289 whole entry): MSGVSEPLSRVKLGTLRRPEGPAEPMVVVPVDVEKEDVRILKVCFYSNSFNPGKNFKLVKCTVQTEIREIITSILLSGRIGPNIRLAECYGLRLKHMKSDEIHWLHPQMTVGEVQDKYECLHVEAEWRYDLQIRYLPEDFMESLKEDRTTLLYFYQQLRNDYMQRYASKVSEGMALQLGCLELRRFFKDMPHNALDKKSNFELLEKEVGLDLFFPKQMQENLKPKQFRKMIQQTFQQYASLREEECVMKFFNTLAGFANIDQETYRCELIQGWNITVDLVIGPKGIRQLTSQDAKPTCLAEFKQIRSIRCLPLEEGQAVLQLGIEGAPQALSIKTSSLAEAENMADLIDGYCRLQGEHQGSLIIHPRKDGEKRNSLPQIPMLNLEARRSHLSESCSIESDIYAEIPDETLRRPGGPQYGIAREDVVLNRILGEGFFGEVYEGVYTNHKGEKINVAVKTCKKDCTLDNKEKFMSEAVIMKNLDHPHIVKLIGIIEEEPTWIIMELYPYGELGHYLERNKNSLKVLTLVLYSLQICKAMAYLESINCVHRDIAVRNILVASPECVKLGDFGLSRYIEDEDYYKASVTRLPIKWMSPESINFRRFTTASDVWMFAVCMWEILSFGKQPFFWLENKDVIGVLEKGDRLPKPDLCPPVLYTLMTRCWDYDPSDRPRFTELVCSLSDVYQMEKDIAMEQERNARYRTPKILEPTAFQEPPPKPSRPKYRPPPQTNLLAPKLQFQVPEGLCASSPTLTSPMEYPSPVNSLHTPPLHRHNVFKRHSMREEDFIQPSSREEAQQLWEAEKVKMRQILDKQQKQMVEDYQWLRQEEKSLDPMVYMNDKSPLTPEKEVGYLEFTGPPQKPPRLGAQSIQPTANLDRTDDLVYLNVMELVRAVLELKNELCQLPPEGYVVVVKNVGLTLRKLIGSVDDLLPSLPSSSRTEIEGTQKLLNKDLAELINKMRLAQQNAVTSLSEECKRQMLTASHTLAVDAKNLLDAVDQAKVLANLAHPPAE

[11] = molecular target: T2, Zinc finger protein mex-5 (Caenorhabditis elegans, UniProt Q9XUB2); experiment: MEX-5/TCR-2 RNA interaction inhibitors, dose response, biochemical, C. elegans, fluorescence polarization (AID 1960)
T2 sequence (Q9XUB2 whole entry): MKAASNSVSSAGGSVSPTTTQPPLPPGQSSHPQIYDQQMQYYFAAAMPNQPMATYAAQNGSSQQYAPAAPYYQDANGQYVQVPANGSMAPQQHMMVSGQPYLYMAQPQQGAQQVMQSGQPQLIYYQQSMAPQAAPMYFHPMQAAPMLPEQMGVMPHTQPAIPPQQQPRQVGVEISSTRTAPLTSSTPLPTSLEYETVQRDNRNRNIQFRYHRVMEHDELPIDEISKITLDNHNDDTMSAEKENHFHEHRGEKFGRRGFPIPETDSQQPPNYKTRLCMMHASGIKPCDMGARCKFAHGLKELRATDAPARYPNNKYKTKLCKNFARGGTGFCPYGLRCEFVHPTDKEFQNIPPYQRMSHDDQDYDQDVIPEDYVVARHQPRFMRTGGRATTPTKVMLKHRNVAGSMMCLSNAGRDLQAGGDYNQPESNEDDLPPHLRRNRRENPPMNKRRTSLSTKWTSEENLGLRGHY

Large T antigen = Large T antigen (Simian virus 40, UniProt P03070); format: functional, Betapolyomavirus macacae;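 further: Confirmatory-stage PubChem screen for compounds that inhibit SV40 T antigen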
[12] = molecular target: T3, RNA-binding protein pos-1 (Caenorhabditis elegans, UniProt G5EF15); experiment: inhibitors of POS-1/mex-3 RNA binding, dose response, biochemical, fluorescence polarization (AID 1964);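 further: purified POS-1 fused to maltose binding protein made in E. coli; potency of compounds blocking POS-1 binding to fluorescent RNA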
T3 sequence (G5EF15 whole entry): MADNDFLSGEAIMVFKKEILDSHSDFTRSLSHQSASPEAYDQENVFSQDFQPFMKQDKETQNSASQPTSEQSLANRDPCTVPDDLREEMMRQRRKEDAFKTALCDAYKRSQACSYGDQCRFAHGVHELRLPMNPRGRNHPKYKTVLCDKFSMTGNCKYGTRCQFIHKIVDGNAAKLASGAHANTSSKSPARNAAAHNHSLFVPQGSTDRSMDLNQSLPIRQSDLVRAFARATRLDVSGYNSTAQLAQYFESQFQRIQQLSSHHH

Chain of Genome polyprotein (Q2Q167 whole entry): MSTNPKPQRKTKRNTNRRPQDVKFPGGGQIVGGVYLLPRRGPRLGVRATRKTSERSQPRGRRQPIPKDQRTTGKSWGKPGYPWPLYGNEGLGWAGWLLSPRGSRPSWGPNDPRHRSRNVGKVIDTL

COc1ccc(N2CCN(C(=O)c3ccc4c(c3)NC(=O)C(CSCc3ccc(C)cc3)N4)CC2)cc1 (centres undefined)
IC50 (Genome polyprotein): > 49.8 µM (not active)

CC1=NN(c2ccc(C)c(C)c2)C(=O)/C1=C\C=C\c1ccc([N+](=O)[O-])o1
IC50 (Genome polyprotein): > 49.8 µM (not active)
AC50 (INS1): 4.08 µM (active)
AC50 (Caspase-6): 1.79 µM (active)

Cc1nc(O)c(C(=O)/C=C/c2ccccc2F)c2c1CCCC2
EC50 (H4): > 120 µM (not active)
EC50 [1]: 9.92 µM (active)
IC50 [2]: 1.52 µM (active)
EC50 [3]: > 120 µM (not active)

COc1ccc2[nH]c(C(=O)Nc3ccc(F)cc3Br)cc2c1
IC50 [4]: > 39.9 µM (not active)
IC50 [5]: > 39.9 µM (not active)

COC(=O)C(Cl)C(=O)OC
IC50 [6]: > 40 µM (inactive)
IC50 [7]: 8.37 µM (inactive)
IC50 [8]: > 33.3 µM (inactive)

CS(=O)(=O)NCc1nnc(SCC(=O)NC2CCCCC2)n1-c1ccc(F)cc1
EC50 [9]: > 50 µM (not active)

O=C(N/N=C1/C(=O)c2cccc3cccc1c23)c1ccc(Cl)cc1
IC50 [10]: 4.31 µM (active)

Oc1ccc2ccccc2c1/C=N/c1ccc(N2CCOCC2)cc1
EC50 [11]: > 300 µM (not active)
IC50 [10]: 10.6 µM (not active)
IC50 (Large T antigen): 36 µM (active)
EC50 [12]: > 300 µM (not active)
